The nature of series [1]: Additional combination experiments with Compound 1. The format is cell-based.
Series [2] concerns Jurkat human T cell leukemia cells. The series can be described thus: Sensitization to DNA damaging chemotherapeutic agents, relative ATP viability, 3 days. Particulars: for Fold change (IC50 in Jurkat cells): without vs with 0.5 nM Compound 1.
Method: (§1) Cells were plated in logarithmic growth phase at 500-20,000 cells per well in 96-well clear bottom plates (Corning; Corning, N.Y.) and cultured for 14 to 16 hours prior to the start of drug treatment. Serial dilutions of Compound 2 and Compound 1 were made in DMSO, diluted 1:50 in RPMI-1640 (Hyclone; Logan, Utah) and then added to tissue culture media at a final concentration of 0.2% DMSO. […] Relative ATP levels were determined by the bioluminescent measuring of cellular ATP levels in each culture well with the ViaLight-HS High Sensitivity Cytotoxicity and Cell Proliferation BioAssay Kit (Cambrex Bioproducts, Cat. No. LT07-311; Charles City, Iowa) according to manufacturer's instructions. Briefly, a cell permeabilizing reagent was added to each culture well in media at the time of viability determination, allowing free ATP to be released from viable cells in the culture. Addition of luciferase to the mixture catalyzes the release of light proportional to the amount of free ATP present, which can then be quantified in a Centro LB 960 luminometer (EG&G Berthold; Oak Ridge, Tenn.); the level of ATP is generally directly proportional to the viability of the cells.
(§2) Sigmoidal dose response curves were then generated using non-linear regression analysis of variable slope by Prism Version 4.00 for Windows (GraphPad Software, Inc.; San Diego, Calif.) and IC50 values calculated.
(§3) The IC50 values for the treatment with the DNA damaging agent were calculated relative to control cells that were treated with DMSO only.
In series [3] the test system is DMS-114 human small cell lung carcinoma cells. The series is described as above. The settings on record: for Fold change (IC50 in DMS-114 cells): without vs with 0.75 nM Compound 1. The format is cell-based.
Method: as §1, §2, §3
Series [4] has as its system human multiple myeloma IM-9 cancer cells. Kind of series: Xenograft of a cancer not deficient in nicotinic acid pathway. It is filed as in vivo, CB17 SCID mice. The settings on record: Compound 2 150 mg/kg IV 24 hours infusion from day eight; observation 23 days. The protocol:
Human multiple myeloma IM-9 cancer cells were maintained in RPMI (Hyclone, Utah, USA) supplemented with 10% inactivated fetal bovine serum (Bio-Whittaker; MD, USA) and 1% penicillin-streptomycin-L-Glutamine (Gibco; NY, USA), under 5% CO2 at 37° C. IM-9 cells were transplanted subcutaneously into the flank of female mice. Each mouse was inoculated with a suspension of 10×10^6 tumors cells per 100 μl in PBS on day zero.
Treatments started on day eight after IM-9 cells transplantation. […] The control group was treated with vehicle (0.9% NaCl) alone for 104 hours. […] Compound 2 was prepared fresh for dosing and formulated in a vehicle solution of 10 mM citrate buffer at pH 4.8.
Observation continued for 23 days after initial tumor implantation.

The nature of series [5]: Nicotinic acid pre-treatment against lethal intramuscular Compound 2 in non-tumor-bearing mice.
Series [6] concerns Human Fibrosarcoma HT1080 cancer cells. The series can be described thus: Xenograft of a cancer deficient in nicotinic acid pathway. The format is in vivo, mice. The protocol: Human Fibrosarcoma HT1080 cancer cells were maintained in RPMI (Hyclone, Utah, USA) supplemented with 10% inactivated fetal bovine serum (Bio-Whittaker, Md., USA) and 1% penicillin-streptomycin-L-Glutamine (Gibco; NY, USA), under 5% CO2 at 37° C. HT1080 cells were transplanted subcutaneously into the flank of female mice. Each mouse was inoculated with a suspension of 1×10^6 tumors cells per 100 μl in PBS on day zero.
Treatments started on day fifteen after HT1080 cells transplantation. […] The control group was treated with vehicle (0.9% NaCl) alone for 104 hours. Treatments were conducted using Lomir External pump—Model 220 with a flow rate of 50 μL/hr (˜2.5 mL/kg/hr) and equipped with 1 cc syringes for treated groups or equipped with 10 cc syringes for the control group. Compound 2 was prepared fresh for dosing and formulated in a vehicle solution of 10 mM citrate buffer at pH 4.8.
Observation continued for 22 days after initial tumor implantation.

Series [7] is described as follows: Nicotinic acid as antidote to a lethal 24 h infusion of Compound 2 in non-tumor-bearing mice. The settings on record: Compound 2 650 mg/kg 24 h infusion. The procedure:
CB17 SCID female mice, 5 mice per group, who were not bearing tumors were administered a lethal dose of Compound 2 as a 24 h infusion of Compound 2 at 650 mg/kg. Thereafter, mice were infused with saline for 24 h (Group 1); a niacin solution (12 mg/mL) for 4 hours at a dose of 90 mg/m2/h (30 mg/kg/h) followed by saline for another 20 h at a flow rate of 50 μL/h (Group 2); or a niacin solution (12 mg/mL) for 24 hours at a dose of 90 mg/m^2/h (30 mg/kg/h) with a flow rate of 50 μL/h.

The target in a further series is human NMPRT (Homo sapiens, UniProt P43490). The settings on record: cited from earlier work.
The next series has as its system HeLa cells. Particulars: Compound 1 20 nM, NM contained 0.1% NA. The protocol:
Viability was measured after 72 hours by ViaLight assay (assessing ATP levels). […] Each bar is the mean±SD of quadruplicate samples. Each figure is representative of two independent experiments.
Viability was measured after 72 hours by ViaLight assay. […] Each point represents the mean and error bars the SD of triplicate samples. […] The concentration of nicotinamide in RPMI 1640 media was […]. HeLa cells were transiently transfected with vector (pcDNA3) or a plasmid expressing a flag-tagged yeast PNC1 gene (pcFLAG-PNC1). […] Relative viability was assessed after 72 hours by ViaLight assay.

Setting [8] is: Homo sapiens, Jurkat, 72 h, read-out: IC50 in Jurkat cells (μM), DNA damaging chemotherapeutic agent + No Compound 1.
Where [9] appears, read: read-out: IC50 in Jurkat cells (μM), DNA damaging chemotherapeutic agent + 0.5 nM Compound 1, with 0.5 nM Compound 1, 3 days, relative to Compound 1 only control.
Where [10] appears, read: Homo sapiens, DMS-114, 72 h, read-out: IC50 in DMS-114 cells (μM), DNA damaging chemotherapeutic agent + No Compound 1, agent alone, 3 days, relative to DMSO control.
Setting [11] is: read-out: IC50 in DMS-114 cells (μM), DNA damaging chemotherapeutic agent + 0.75 nM Compound 1, with 0.75 nM Compound 1, 3 days, relative to Compound 1 only control.

Molecules are shown by their SMILES. Several values for one entry are separate records, joined by “and”; a condition that tells them apart may be missing. Equal values may be shown once. Read-outs that look alike come from different tables or passages of the source.

Chain of human NMPRT (P43490 whole entry): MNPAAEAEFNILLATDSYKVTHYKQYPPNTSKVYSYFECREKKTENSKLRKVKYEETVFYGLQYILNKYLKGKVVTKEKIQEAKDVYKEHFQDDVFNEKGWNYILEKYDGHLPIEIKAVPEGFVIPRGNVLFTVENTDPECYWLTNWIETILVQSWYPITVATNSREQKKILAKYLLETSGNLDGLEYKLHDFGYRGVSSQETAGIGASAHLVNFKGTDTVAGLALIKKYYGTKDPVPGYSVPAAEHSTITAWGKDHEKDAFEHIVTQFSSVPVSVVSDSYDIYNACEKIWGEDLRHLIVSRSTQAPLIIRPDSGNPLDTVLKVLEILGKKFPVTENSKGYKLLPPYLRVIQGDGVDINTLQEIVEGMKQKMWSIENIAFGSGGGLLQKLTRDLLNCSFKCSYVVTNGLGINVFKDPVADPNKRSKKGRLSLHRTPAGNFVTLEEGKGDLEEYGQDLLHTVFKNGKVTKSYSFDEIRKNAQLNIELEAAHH

In the case of `Sc1ncnc2nc[nH]c12` [6-Mercaptopurine], the “Combination effect in the presence of Compound 1” value (shortened to “Combination effect”) in series [1] is “less than additive effect”.
Take `CC(=O)O[C@H]1C(=O)[C@@]2(C)[C@H]([C@H](OC(=O)c3ccccc3)[C@]3(O)C[C@H](OC(=O)[C@H](O)[C@@H](NC(=O)c4ccccc4)c4ccccc4)C(C)=C1C3(C)C)[C@]1(OC(C)=O)CO[C@@H]1C[C@@H]2O` [Paclitaxel]: the “Combination effect” value in series [1] is “less than additive effect”.
On the same count and under the same terms, with `O=P1(N(CCCl)CCCl)NCCCO1` (stereo not drawn) [Cyclophosphamide] the entry was “less than additive effect”.
Usually IC50 stands for the concentration at which inhibition is half-maximal. With `Cn1nnc2c(C(N)=O)ncn2c1=O` [Temozolomide], the IC50 in series [2] (setting [8]) was 212 ± 135 µM; in series [2] (setting [9]) it was 158 ± 125 µM; in series [3] (setting [10]), 339 ± 190 µM; in [3] (setting [11]), 50.1 ± 7.83 µM. In series [2], the “Fold change (IC50 in Jurkat cells)” value was determined as 1.46 ± 0.26. Besides, the “Fold change (IC50 in DMS-114 cells)” value in series [3] is 2.53 ± .11.
Take `O=NN(CCCl)C(=O)NCCCl` [Carmustine]: the IC50 in series [2] (setting [8]) turned out to be 2.97 ± 1.1 µM; in series [2] (setting [9]) it was 3.13 ± 0.49 µM; in series [3] (setting [10]), 33.3 ± 7.3 µM; in series [3] (setting [11]), 11.5 ± 3.6 µM. In series [2], the “Fold change (IC50 in Jurkat cells)” value is listed as 0.93 ± 0.21. For the same molecule, in series [3], the “Fold change (IC50 in DMS-114 cells)” value is given as 6.12 ± 7.5.
For the molecule `COCCOCCOCCOCCOC(=O)OC[n+]1ccc(NC(=NC#N)NCCCCCCOc2ccc(Cl)cc2)cc1.[Cl-]` [Compound 2, 1-[2-(2-(2-(2-Methoxyethoxy)-ethoxy)-ethoxy)-ethoxy-carbonyloxymethyl]-4-[N′-cyano-N″-(6-(4-chlorophenoxy)-hexyl)-N-guanidino]-pyridinium chloride], the “Tumor growth compared to vehicle” value is reported as “statistically significant reduction in tumor growth” in series [4]; “statistically significant reduction in tumor growth” in series [6] (Compound 2 150 mg/kg IV 24 hours infusion from day fifteen, observation 22 days); “significant reduction in tumor growth” in series [6] (Compound 2 650 mg/kg IV 24 hours infusion). Further, the “Mortality by day 11” value in series [5] (Compound 2 250 mg/kg intramuscular QD × 5, no nicotinic acid, 250 mg/kg) is 3 of the 5 and 3/5; in series [5] (Compound 2 250 mg/kg intramuscular QD × 5, nicotinic acid pre-treatment 200 mg/kg IV QD × 5) it was 0/5; in [5] (Compound 2 250 mg/kg intramuscular QD × 5, nicotinic acid pre-treatment 200 mg/kg PO QD × 5), 0/5; in series [5] (Compound 2 250 mg/kg intramuscular QD × 5, nicotinic acid pre-treatment 200 mg/kg SC QD × 5), 0/5. Moreover, the “Mortality in treatment group” value in [6] (Compound 2 650 mg/kg IV 24 hours infusion, tumor-bearing mice) is “mortality of a mouse in this treatment group”. For the same molecule, the “Mortality by day 5” value in series [7] (then nicotinic acid 90 mg/m^2/h for 4 h (Group 2)) was 0/4; in series [7] (then nicotinic acid 90 mg/m^2/h for 24 h (Group 3)), 0/5; in series [7] (then saline, no nicotinic acid (Group 1), 650 mg/kg) it was 3 of the 5 and 3/5.
Consider `O=C(/C=C/c1cccnc1)NCCCCC1CCN(C(=O)c2ccccc2)CC1` [FK866, (E)-N-[4-(1-benzoylpiperidin-4-yl)butyl]-3-(pyridin-3-yl)acrylamide], for which the “Inhibition of human NMPRT” value at human NMPRT was “potent”.
Turning to `CNNCc1ccc(C(=O)NC(C)C)cc1` [Procarbazine], the “Combination effect” value in series [1] is “less than additive effect”.
On to `NC(=O)c1cccnc1` [nicotinamide], for which, in the series on HeLa cells, the “Concentrations rescuing viability relative to those required for NA rescue” value is 1,000 ×.
`CN(N=O)C(=O)N[C@H]1C(O)O[C@H](CO)[C@@H](O)[C@@H]1O` (mixture of isomers) [Streptozotocin]: the IC50 in series [2] (setting [9]) stood at 360 ± 304 µM; in series [2] (read-out: IC50 in Jurkat cells (μM), DNA damaging chemotherapeutic agent + No Compound 1, agent alone, 3 days, relative to DMSO control), 1014 ± 10 µM; in [3] (setting [11]) it was 391 ± 152 µM; in series [3] (read-out: IC50 in DMS-114 cells (μM), DNA damaging chemotherapeutic agent + No Compound 1, agent alone, 3 days, relative to DMSO control), 3960 ± 2270 µM.
In the case of `NC(=O)c1ncn([C@@H]2O[C@H](CO)[C@@H](O)[C@H]2O)n1` [Ribavirin], the IC50 was found to be 63.3 ± 10 µM in series [2] (setting [8]), 15.5 ± 3.1 µM in series [2] (setting [9]), 172 µM in [3] (setting [10]) and 173 µM in [3] (setting [11]). In addition, the “Fold change (IC50 in Jurkat cells)” value in series [2] worked out at 4.09 ± 0.16. The “Fold change (IC50 in DMS-114 cells)” value in series [3] amounted to 0.99.

The record behind these values is patent US8211912B2, “Compositions and methods for effecting NAD+ levels using a nicotinamide phosphoribosyl tranferase inhibitor” (Gemin X Pharmaceuticals Canada, priority 2007, dated 2012).
